Laboratory results: ChEMBL document CHEMBL1201862, “PubChem BioAssay data set” (2004)
Blank lines part the entries; values can stand above or below the molecule they belong to. Active and inactive are the calls of the source. For most assays here, no stated cut-off is given here; in the data, actives have a measured IC50 and inactives only a lower limit.

Assays:
Bcl-2-like protein 10 = Bcl-2-like protein 10 (Homo sapiens, UniProt Q9HD36); test: Bcl-B/TR3 peptide binding disruption – biochemical, fluorescence polarization, FITC-TR3 peptide, selectivity assay for Bfl-1 inhibitor project, primary screen (AID 748);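 further: fluorescence polarization from a fluorescein-labelled TR3 peptide binding purified Bcl-B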
Sequence of Bcl-2-like protein 10 (Q9HD36 whole entry, the tested form may be a part): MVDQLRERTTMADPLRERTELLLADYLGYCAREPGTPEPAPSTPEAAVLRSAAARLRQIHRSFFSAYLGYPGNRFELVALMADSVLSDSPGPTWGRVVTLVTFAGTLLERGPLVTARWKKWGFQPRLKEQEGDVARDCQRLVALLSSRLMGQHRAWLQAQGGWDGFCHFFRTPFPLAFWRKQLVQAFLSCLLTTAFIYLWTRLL

[1] = target: T1, Hepatocyte nuclear factor 4-alpha (Homo sapiens, UniProt P41235); type: functional, cell-based;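 further: biochemical luminescence-based dose-response counterscreen measuring inhibition of HNF4 dimerization, run alongside a screen for blockers of ABHD5–perilipin-5 interaction; split luciferase complementation of HNF4 fusion proteins in cell lysate measuring dimerization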
T1 sequence (P41235 whole entry): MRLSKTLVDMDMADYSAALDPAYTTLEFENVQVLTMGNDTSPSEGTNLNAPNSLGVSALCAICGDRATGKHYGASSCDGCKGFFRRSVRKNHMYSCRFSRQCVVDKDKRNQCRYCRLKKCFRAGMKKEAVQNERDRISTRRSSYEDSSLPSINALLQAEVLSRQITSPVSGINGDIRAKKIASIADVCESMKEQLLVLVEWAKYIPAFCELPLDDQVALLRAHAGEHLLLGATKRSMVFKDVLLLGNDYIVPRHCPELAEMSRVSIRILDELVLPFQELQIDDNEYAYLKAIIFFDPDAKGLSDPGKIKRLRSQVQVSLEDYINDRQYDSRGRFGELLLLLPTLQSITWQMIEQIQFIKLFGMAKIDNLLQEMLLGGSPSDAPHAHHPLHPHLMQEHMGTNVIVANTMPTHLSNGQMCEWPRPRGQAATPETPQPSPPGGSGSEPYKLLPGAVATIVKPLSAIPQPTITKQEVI

[2] = target: Induced myeloid leukemia cell differentiation protein Mcl-1 (Homo sapiens, UniProt Q07820); type: functional
[3] = target: Tyrosine-protein phosphatase non-receptor type 12 (Homo sapiens, UniProt Q05209); test: SAR Selectivity Analysis of small molecule inhibitors of PEST using pCAP in a fluorescence assay. [Related pubchem assays (depositor defined):AID1779, AID1784, AID2135]; type: functional
Sequence of Tyrosine-protein phosphatase non-receptor type 12 (Q05209 whole entry): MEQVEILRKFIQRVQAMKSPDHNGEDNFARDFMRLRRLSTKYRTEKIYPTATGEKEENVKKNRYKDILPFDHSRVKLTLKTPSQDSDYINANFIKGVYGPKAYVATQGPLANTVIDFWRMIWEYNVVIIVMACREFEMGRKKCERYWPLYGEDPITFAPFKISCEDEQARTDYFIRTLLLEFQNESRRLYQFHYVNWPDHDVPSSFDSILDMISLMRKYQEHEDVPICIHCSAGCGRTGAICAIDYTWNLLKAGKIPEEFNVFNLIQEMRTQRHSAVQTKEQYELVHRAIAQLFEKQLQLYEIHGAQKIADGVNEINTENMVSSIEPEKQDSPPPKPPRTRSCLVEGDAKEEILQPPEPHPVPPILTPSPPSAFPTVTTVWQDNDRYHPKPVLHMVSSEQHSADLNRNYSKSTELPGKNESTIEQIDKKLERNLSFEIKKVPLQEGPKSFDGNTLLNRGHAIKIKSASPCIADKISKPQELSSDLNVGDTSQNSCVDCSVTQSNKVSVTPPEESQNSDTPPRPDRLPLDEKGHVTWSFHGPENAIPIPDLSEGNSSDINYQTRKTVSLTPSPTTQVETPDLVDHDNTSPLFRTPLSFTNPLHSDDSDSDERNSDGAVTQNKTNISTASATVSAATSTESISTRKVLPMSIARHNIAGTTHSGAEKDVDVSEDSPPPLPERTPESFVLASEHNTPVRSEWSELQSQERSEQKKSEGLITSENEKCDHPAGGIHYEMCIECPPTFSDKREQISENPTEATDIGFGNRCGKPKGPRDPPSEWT

[4] = target: T2, Tyrosine-protein phosphatase non-receptor type 22 (Homo sapiens, UniProt Q9Y2R2); test: SAR LYP1 Fluorescent Assay using OMFP substrate for In Vitro dose response studies - Set 3. [Related pubchem assays (depositor defined):AID1779, AID1784, AID2140, AID2686]; type: functional
T2 sequence (Q9Y2R2 whole entry): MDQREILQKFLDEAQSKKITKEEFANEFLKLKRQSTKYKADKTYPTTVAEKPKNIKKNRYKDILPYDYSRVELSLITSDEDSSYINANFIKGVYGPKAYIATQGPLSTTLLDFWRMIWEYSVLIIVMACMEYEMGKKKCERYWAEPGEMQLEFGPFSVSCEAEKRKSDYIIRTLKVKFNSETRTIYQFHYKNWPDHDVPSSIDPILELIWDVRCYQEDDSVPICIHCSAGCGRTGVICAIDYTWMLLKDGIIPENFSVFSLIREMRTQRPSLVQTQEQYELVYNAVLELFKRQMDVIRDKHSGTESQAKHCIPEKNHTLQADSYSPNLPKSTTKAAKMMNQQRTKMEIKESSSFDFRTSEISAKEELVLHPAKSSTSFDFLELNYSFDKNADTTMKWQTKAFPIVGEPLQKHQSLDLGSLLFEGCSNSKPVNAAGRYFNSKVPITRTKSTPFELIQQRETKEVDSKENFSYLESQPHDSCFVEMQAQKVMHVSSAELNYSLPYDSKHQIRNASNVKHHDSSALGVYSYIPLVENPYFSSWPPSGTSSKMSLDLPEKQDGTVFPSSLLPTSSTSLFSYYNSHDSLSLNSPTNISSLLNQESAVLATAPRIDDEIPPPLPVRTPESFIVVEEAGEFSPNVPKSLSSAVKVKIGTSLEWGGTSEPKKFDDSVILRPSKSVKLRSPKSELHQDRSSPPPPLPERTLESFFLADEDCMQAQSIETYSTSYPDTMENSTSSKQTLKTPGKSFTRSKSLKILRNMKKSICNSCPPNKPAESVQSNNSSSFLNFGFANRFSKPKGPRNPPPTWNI

[5] = target: T2, Tyrosine-protein phosphatase non-receptor type 22; test: inhibition of lymphoid tyrosine phosphatase LYP – biochemical, pCAP fluorogenic substrate, fluorescence, set 3, SAR follow-up (AID 449727); type: functional
[6] = target: Glyceraldehyde-3-phosphate dehydrogenase (Homo sapiens, UniProt P04406)
Sequence of Glyceraldehyde-3-phosphate dehydrogenase (P04406 whole entry): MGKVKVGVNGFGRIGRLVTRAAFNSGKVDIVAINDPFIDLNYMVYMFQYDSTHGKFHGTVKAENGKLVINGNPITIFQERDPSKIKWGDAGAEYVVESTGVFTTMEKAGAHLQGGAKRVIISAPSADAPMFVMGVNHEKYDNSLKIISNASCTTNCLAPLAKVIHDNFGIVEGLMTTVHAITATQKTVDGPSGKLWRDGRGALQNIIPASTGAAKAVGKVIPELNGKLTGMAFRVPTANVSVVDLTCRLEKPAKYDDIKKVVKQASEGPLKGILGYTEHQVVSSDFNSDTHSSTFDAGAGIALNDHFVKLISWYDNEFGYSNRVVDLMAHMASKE

Caspase-7 = Caspase-7 (Homo sapiens, UniProt P55210); test: caspase-7 enzyme inhibition, selectivity check – biochemical, DEVD-R110 fluorescence, cherry-pick, selectivity assay for caspase-6 inhibitor project, dose response (AID 743295); type: functional
Sequence of Caspase-7 (P55210 24-198 limits assumed): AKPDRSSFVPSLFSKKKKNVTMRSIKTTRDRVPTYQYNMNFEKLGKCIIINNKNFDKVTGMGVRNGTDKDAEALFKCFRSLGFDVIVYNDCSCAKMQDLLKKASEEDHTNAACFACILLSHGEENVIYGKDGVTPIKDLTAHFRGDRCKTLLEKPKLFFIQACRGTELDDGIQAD
Sequence of Caspase-7 (P55210 207-303 limits assumed): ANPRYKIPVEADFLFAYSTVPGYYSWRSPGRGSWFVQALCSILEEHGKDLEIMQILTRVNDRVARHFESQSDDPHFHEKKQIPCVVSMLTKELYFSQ

[7] = target: Heat shock cognate 71 kDa protein (Homo sapiens, UniProt P11142); test: In Vitro Hsc70 Dose Response Fluorescence Polarization Assay. [Related pubchem assays: 1072 ]
Sequence of Heat shock cognate 71 kDa protein (P11142 whole entry): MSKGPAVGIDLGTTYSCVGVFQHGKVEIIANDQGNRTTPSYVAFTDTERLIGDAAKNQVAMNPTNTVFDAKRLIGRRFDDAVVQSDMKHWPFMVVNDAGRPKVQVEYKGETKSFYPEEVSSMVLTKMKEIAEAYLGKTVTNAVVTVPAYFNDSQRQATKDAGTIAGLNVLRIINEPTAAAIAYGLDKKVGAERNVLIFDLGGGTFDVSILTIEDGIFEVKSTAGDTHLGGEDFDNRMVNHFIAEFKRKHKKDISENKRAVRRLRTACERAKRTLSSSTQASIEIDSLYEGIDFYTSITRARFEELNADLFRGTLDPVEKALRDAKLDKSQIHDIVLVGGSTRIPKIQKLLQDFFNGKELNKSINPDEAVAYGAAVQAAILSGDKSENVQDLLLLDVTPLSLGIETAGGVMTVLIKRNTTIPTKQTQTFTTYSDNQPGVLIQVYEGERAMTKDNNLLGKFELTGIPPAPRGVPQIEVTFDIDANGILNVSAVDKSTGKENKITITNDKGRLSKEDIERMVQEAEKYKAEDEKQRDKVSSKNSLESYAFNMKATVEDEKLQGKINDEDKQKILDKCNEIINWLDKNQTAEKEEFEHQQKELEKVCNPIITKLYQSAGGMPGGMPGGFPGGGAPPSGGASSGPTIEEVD

[8] = target: T3, Dual specificity protein phosphatase 6 (Rattus norvegicus, UniProt Q64346)
T3 sequence (Q64346 whole entry): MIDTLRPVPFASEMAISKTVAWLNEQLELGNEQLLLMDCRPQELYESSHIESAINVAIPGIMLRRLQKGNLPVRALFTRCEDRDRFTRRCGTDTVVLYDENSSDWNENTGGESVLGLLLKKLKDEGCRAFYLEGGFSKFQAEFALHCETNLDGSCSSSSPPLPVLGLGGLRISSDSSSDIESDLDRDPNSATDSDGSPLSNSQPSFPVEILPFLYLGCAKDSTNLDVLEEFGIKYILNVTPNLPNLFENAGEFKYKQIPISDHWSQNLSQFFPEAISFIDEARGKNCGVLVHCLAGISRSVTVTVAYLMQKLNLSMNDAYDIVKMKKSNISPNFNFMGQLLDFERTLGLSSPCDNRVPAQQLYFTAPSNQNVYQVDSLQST

Caspase-6 = target: T4, Caspase-6 (Homo sapiens, UniProt P55212); test: inhibition of CASP6 peptide cleavage – biochemical, VEID-R110 fluorescence, cherry-pick, dose response (AID 720632)
T4 sequence (P55212 whole entry): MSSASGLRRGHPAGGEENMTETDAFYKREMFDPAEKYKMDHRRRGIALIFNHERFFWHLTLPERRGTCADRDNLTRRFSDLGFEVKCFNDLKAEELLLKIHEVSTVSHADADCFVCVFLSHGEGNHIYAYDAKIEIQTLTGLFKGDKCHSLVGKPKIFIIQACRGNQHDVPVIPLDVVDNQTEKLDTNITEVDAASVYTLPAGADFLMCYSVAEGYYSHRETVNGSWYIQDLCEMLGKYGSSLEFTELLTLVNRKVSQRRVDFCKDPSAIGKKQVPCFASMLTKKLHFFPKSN

[9] = target: DNA (cytosine-5)-methyltransferase 1 (Homo sapiens, UniProt P26358); test: inhibition of DNA methylation by DNMT1 – biochemical, fluorescent molecular beacon, confirmation (AID 602386); type: functional
Sequence of DNA (cytosine-5)-methyltransferase 1 (P26358 whole entry): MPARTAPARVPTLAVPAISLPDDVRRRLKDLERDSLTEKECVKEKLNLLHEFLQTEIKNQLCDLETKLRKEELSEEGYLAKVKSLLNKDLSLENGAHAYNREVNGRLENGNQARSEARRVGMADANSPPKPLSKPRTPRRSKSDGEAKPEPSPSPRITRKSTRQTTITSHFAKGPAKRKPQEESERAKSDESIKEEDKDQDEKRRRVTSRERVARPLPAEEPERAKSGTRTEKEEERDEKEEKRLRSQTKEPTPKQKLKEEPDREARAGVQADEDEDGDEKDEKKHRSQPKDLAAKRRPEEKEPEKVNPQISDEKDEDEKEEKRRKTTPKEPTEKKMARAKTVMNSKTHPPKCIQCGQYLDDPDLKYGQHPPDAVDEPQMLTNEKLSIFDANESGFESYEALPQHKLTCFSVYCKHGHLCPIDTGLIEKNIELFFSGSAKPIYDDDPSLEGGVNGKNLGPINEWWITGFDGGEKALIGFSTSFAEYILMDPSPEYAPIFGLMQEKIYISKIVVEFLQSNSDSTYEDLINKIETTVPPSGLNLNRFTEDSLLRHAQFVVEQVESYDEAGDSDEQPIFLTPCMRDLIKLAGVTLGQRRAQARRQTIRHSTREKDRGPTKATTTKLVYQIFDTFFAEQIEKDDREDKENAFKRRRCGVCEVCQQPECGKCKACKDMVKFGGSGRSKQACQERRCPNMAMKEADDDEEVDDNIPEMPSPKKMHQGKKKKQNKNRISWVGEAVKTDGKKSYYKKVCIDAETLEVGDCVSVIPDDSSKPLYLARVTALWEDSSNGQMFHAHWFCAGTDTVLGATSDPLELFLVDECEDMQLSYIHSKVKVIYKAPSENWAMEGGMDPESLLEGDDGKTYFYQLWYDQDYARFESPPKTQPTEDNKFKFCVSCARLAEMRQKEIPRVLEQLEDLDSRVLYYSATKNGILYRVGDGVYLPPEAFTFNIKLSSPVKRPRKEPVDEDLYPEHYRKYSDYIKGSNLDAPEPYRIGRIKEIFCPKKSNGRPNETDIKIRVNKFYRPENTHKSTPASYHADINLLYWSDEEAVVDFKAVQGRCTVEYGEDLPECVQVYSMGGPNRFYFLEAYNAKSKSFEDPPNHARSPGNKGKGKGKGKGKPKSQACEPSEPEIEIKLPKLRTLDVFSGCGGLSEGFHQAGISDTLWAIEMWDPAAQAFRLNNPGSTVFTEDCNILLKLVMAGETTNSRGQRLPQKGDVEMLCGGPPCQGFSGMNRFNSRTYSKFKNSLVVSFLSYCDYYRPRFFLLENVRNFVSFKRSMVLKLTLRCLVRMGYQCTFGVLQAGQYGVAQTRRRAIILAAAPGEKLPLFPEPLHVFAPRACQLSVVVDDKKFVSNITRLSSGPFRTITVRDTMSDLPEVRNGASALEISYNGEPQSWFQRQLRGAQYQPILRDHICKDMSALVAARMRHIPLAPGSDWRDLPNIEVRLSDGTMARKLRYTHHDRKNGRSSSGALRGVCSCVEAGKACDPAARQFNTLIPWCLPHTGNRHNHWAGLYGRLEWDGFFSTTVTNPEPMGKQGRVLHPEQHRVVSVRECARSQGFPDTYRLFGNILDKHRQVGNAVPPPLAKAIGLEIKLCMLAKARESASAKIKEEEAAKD

[10] = target: Heat shock 70 kDa protein 1A (Homo sapiens, UniProt P0DMV8); test: inhibition of Hsp70 binding activity – biochemical, fluorescence polarization, SAR follow-up (AID 1072)
Caspase-8 = Caspase-8 (Homo sapiens, UniProt Q14790); test: inhibitors of purified CASP8 protease – biochemical, Z-IETD-R110 fluorescence, cherry-picked samples, selectivity assay for caspase-6 inhibitor project, dose response (AID 743294)
Sequence of Caspase-8 (Q14790 217-374 limits assumed): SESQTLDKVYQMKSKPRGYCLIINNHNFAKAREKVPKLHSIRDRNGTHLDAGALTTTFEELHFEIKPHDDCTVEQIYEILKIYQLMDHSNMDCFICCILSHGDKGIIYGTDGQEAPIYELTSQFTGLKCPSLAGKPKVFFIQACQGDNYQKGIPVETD
Sequence of Caspase-8 (Q14790 385-479 limits assumed): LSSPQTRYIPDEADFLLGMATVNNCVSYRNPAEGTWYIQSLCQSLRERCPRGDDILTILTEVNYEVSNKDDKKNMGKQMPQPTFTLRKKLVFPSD

[11] = target: T5, Tyrosine-protein phosphatase non-receptor type 7 (Homo sapiens, UniProt P35236); type: functional
T5 sequence (P35236 whole entry): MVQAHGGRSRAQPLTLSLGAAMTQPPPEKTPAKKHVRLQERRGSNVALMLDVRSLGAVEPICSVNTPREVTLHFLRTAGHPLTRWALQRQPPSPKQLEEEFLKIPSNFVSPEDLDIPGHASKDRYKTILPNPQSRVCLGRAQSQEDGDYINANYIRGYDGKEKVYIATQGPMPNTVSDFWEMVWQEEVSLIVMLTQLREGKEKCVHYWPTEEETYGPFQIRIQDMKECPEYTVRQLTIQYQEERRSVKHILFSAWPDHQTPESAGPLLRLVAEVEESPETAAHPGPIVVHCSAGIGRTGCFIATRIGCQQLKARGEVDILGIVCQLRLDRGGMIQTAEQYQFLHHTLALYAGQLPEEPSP

[12] = target: T3, Dual specificity protein phosphatase 6; type: functional
HEK293 = test: Fluorescence-based counterscreen for potentiators or agonists of NPY-Y2: cell-based high-throughput dose response assay to identify inhibitors of cyclic nucleotide gated ion channel (CNGC) activity. In this assay, the parental HEK293 cell line transfected with a cyclic-nucleotide gated ion channel (CNGC)-based cAMP sensor is used to measure inhibition of isoproterenol-induced CNGC activity by test compound.; type: functional; settings: Homo sapiens;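 further: stimulus is 1 µM isoproterenol at EC100 plus PDE inhibitor Ro 20-1724 at 25 µM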
[13] = target: T6, Neuropeptide Y receptor type 2 (Homo sapiens, UniProt P49146); test: Fluorescence-based cell-based high-throughput dose response assay for agonists of NPY-Y2. [Related pubchem assays: 1703 (Screening assay (CNGC inhibitors).), 1359 (Screening assay (NPY-Y2 potentiators or agonists).), 1304 (Screening assay (NPY-Y1 potentiators or agonists).), 1710 (Screening assay (NPY-Y2 agonists).), 1791 (Summary AID.)]; type: functional
T6 sequence (P49146 whole entry): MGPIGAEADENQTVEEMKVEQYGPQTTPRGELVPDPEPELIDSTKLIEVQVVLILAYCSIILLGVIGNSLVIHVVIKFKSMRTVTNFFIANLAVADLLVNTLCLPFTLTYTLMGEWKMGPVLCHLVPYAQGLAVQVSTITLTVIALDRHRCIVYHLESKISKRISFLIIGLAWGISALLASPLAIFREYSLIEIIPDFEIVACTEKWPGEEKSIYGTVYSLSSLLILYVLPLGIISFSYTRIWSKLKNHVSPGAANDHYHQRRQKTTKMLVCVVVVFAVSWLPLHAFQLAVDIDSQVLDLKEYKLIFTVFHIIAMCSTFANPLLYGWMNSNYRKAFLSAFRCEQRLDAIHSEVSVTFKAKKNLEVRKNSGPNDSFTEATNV

[14] = target: T7, Neuropeptide Y receptor type 1 (Homo sapiens, UniProt P25929); test: Fluorescence-based counterscreen for agonists of NPY-Y2: cell-based high-throughput dose response assay for agonists of NPY-Y1.; type: functional
T7 sequence (P25929 whole entry): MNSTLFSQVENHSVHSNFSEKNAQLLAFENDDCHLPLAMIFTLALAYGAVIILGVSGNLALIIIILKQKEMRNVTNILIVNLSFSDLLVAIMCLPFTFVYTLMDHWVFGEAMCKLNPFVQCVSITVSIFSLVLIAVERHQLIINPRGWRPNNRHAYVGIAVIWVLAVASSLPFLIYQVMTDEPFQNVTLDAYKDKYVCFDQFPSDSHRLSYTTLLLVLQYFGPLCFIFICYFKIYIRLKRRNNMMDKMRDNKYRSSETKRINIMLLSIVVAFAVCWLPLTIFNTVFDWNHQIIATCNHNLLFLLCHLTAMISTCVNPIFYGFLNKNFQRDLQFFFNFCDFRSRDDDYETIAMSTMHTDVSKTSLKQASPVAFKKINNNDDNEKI

- IC50 (Bcl-2-like protein 10): 19 µM (active)
- IC50 [1]: 1.6 µM (active)
- IC50 [2]: 3.01 µM (active)
SMILES: Cc1ccc(NC(=O)CSc2nnc(-c3ccco3)c(-c3ccco3)n2)cc1

- IC50 [3]: > 100 µM (inactive)
- IC50 [4]: > 100 µM (inactive)
- IC50 [5]: > 100 µM (inactive)
- IC50 [6]: > 100 µM (not active)
SMILES: COc1cc(/C=C2\SC(N(C)c3ccc(O)cc3)=NC2=O)ccc1OCC(=O)O

- AC50 (Caspase-7): 34.1 µM (active)
- IC50 [7]: > 100 µM (not active)
- IC50 [8]: 14.2 µM (active)
- AC50 (Caspase-6): 2 µM (active)
- IC50 [9]: 4.36 µM (active)
- IC50 [10]: > 100 µM (not active)
- IC50 [6]: > 100 µM (not active)
- AC50 (Caspase-8): > 70 µM (inactive)
- IC50 [11]: 9.63 µM (active)
- IC50 [12]: 12 µM (active)
SMILES: O=C(O)C1Nc2c(Cl)cc(Cl)c(Cl)c2C2C=CCC12 (stereo not given)

SMILES: Cc1c([N+](=O)[O-])c(C(=O)Sc2ccc(Br)cc2)nn1C
- EC50 (HEK293): > 11.8 µM (not active)
- EC50 [13]: > 35.4 µM (not active)
- EC50 [14]: > 35.4 µM (not active)
